{"source": "patent US10501421B1", "about": "“Substituted benzimidazoles as modulators of Ras signaling” (VANDERBILT UNIVERSITY, priority 2017, dated 2019)", "note": "Structures can show the parent of a compound that is named as a salt."}
{"molecular_target": "Ras GEF SOS (Son of Sevenless) (Homo sapiens, UniProt Q07889)", "sequence (P01112 1-166 partner limits assumed, one chain of several)": "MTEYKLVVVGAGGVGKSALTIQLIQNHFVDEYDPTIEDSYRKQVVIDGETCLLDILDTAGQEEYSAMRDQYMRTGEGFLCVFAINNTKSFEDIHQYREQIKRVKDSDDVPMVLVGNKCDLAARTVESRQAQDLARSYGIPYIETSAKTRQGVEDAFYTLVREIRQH", "assay": "SOS-mediated nucleotide exchange on Ras (BODIPY-GDP fluorescence)", "type": "biochemical", "details": "SOS-mediated exchange of BODIPY-GDP for GTP on Ras", "method": "Compounds of the present invention were tested for their ability to modify the rate at which Ras exchanges a labeled nucleotide guanosine diphosphate (GDP) analog for guanosine triphosphate (GTP). Briefly, test compounds, then GTP and the Ras GEF SOS (Son of Sevenless) are added to a buffered solution containing Ras protein loaded with BODIPY-GDP. Changes in fluoresence indicating exchange of the labeled GDP for GTP are monitored over time. Raw fluorescence data was fit to a single exponential decay function and derived rates were plotted as mean values. EC50 values were calculated by plotting mean derived rates as a function of compound concentration and fit using a four-parameter dose-response curve. This assay is performed in a method analogous to the assay disclosed in: Burns, M. C.; Sun, Q.; Daniels, R. N.; Camper, D. V.; Kennedy, J. P.; Phan, J.; Olejniczak, E. O.; Lee, T.; Waterson, A. G.; Rossanese, O. W.; Fesik, S. W. “Approach for targeting Ras with small molecules that activate SOS-mediated nucleotide exchange” Proc. Natl. Acad. Sci. 2014; 11(9): 3401-3406. PMCID: PMC3948241.", "units": {"EC50": "µM"}}
{"compound": "CC(C)N1CC[C@@H](C(=O)c2ccccc2)[C@H]1c1cc(Cl)cc2c1nc(N1CCNCC1)n2Cc1ccc(F)c(Cl)c1", "note": "[Example 152, ((2S,3R)-2-(6-chloro-1-(3-chloro-4-fluorobenzyl)-2-(piperazin-1-yl)-1H-benzo[d]imidazol-4-yl)-1-isopropylpyrrolidin-3-yl)(phenyl)methanone trifluoroacetate]", "EC50": "1 to 5"}
{"compound": "COc1ccccc1C#Cc1ccccc1-c1cc(Cl)cc2c1nc(N1CCNCC1)n2Cc1cc(C)c(F)c(C)c1", "note": "[Example 186, 6-chloro-1-(4-fluoro-3,5-dimethylbenzyl)-4-(2-((2-methoxyphenyl)ethynyl)phenyl)-2-(piperazin-1-yl)-1H-benzo[d]imidazole trifluoroacetate]", "EC50": "5 to 30"}
{"compound": "Cc1cc2c(cc1C)N(Cc1cccc(Br)c1)C1=NCCCN12", "note": "[Example 215, 10-(3-bromobenzyl)-7,8-dimethyl-2,3,4,10-tetrahydrobenzo[4,5]imidazo[1,2-a]pyrimidine]", "EC50": "5 to 30"}
{"compound": "Cc1cc(Cn2c(N3CCNCC3)nc3c(-c4ccccc4)nccc32)ccc1F", "note": "[Example 220, 1-(4-fluoro-3-methylbenzyl)-4-phenyl-2-(piperazin-1-yl)-1H-imidazo[4,5-c]pyridine]", "EC50": "5 to 30"}
{"compound": "Cc1cc(Cn2c(NCCN)nc3c(-c4ccccc4)nccc32)ccc1F", "note": "[Example 221, N^1-(1-(4-fluoro-3-methylbenzyl)-4-phenyl-1H-imidazo[4,5-c]pyridin-2-yl)ethane-1,2-diamine]", "EC50": "30 to 100"}
{"compound": "Cc1cc(Cn2c(NC3CCNC3)nc3c(-c4ccccc4)nccc32)ccc1F", "note": "(stereo not drawn) [Example 222, 1-(4-fluoro-3-methylbenzyl)-4-phenyl-N-(pyrrolidin-3-yl)-1H-imidazo[4,5-c]pyridin-2-amine]", "EC50": "5 to 30"}
{"compound": "Cc1cc2c(nc(N3CCNCC3)n2Cc2ccc(F)c(C)c2)c(CN2CCCC2)n1", "note": "[Example 236, 1-(4-fluoro-3-methylbenzyl)-6-methyl-2-(piperazin-1-yl)-4-(pyrrolidin-1-ylmethyl)-1H-imidazo[4,5-c]pyridine]", "EC50": "30 to 100"}
{"compound": "Cc1cc2c(nc(N3CCNCC3)n2Cc2ccc(F)c(C)c2)c(CN2CCOCC2)n1", "note": "[Example 237, 4-((1-(4-fluoro-3-methylbenzyl)-6-methyl-2-(piperazin-1-yl)-1H-imidazo[4,5-c]pyridin-4-yl)methyl)morpholine]", "EC50": "30 to 100"}
{"compound": "Cc1cc2c(nc(N3CCNCC3)n2Cc2ccc(F)c(C)c2)c(CN2CCC(O)CC2)n1", "note": "[Example 238, 1-((1-(4-fluoro-3-methylbenzyl)-6-methyl-2-(piperazin-1-yl)-1H-imidazo[4,5-c]pyridin-4-yl)methyl)piperidin-4-ol]", "EC50": "30 to 100"}
{"compound": "C=Cc1nc(C)cc2c1nc(N1CCNCC1)n2Cc1ccc(F)c(C)c1", "note": "[Example 239, 1-(4-fluoro-3-methylbenzyl)-6-methyl-2-(piperazin-1-yl)-4-vinyl-1H-imidazo[4,5-c]pyridine]", "EC50": "30 to 100"}
{"compound": "Cc1cnc2nc(N3CCNCC3)n(Cc3ccc(F)c(Cl)c3)c2c1", "note": "[Example 242, 1-(3-chloro-4-fluorobenzyl)-6-methyl-2-(piperazin-1-yl)-1H-imidazo[4,5-b]pyridine]", "EC50": "1 to 5"}
{"compound": "Cc1cnc2ncn(Cc3ccc(F)c(Cl)c3)c2c1", "note": "[Example 243, 1-(3-chloro-4-fluorobenzyl)-6-methyl-1H-imidazo[4,5-b]pyridine]", "EC50": "30 to 100"}
{"compound": "Cc1cnc2nc(N3CCNCC3)n(Cc3ccc(F)c(C)c3)c2c1", "note": "[Example 244, 1-(4-fluoro-3-methylbenzyl)-6-methyl-2-(piperazin-1-yl)-1H-imidazo[4,5-b]pyridine]", "EC50": "5 to 30"}
{"compound": "Fc1ccc(Cn2c(N3CCNCC3)nc3ncccc32)cc1", "note": "[Example 249, 1-(4-fluorobenzyl)-2-(piperazin-1-yl)-1H-imidazo[4,5-b]pyridine]", "EC50": "5 to 30"}
{"compound": "NCCNc1nc2ncccc2n1Cc1ccc(F)cc1", "note": "[Example 250, N^1-(1-(4-fluorobenzyl)-1H-imidazo[4,5-b]pyridin-2-yl)ethane-1,2-diamine]", "EC50": "5 to 30"}
{"compound": "Fc1ccc(Cn2cnc3ncccc32)cc1", "note": "[Example 253, 1-(4-fluorobenzyl)-1H-imidazo[4,5-b]pyridine]", "EC50": "30 to 100"}
{"compound": "Clc1ccc(Cn2c(Cl)nc3ncccc32)cc1", "note": "[Example 254, 2-chloro-1-(4-chlorobenzyl)-1H-imidazo[4,5-b]pyridine]", "EC50": "30 to 100"}
{"compound": "Clc1ccc(Cn2cnc3ncccc32)cc1", "note": "[Example 255, 1-(4-chlorobenzyl)-1H-imidazo[4,5-b]pyridine]", "EC50": "30 to 100"}
{"compound": "Cc1ccc2c(n1)nc(N1CCNCC1)n2Cc1ccc(F)c(Cl)c1", "note": "[Example 256, 1-(3-chloro-4-fluorobenzyl)-5-methyl-2-(piperazin-1-yl)-1H-imidazo[4,5-b]pyridine]", "EC50": "5 to 30"}
{"compound": "Cc1ccc2c(n1)nc(NCCN)n2Cc1ccc(F)c(Cl)c1", "note": "[Example 257, N^1-(1-(3-chloro-4-fluorobenzyl)-5-methyl-1H-imidazo[4,5-b]pyridin-2-yl)ethane-1,2-diamine]", "EC50": "5 to 30"}
{"compound": "Oc1ccc(-c2cccc3c2nc(N2CCNCC2)n3Cc2ccc(F)c(Cl)c2)cc1", "note": "[Example 264, 4-[1-[(3-chloro-4-fluorophenyl)methyl]-2-piperazin-1-ylbenzimidazol-4-yl]phenol]", "EC50": "5 to 30"}
{"compound": "Cc1cc2nc(NC3CCNCC3)n(Cc3ccc(F)c(Cl)c3)c2cc1C", "note": "[Example 269, 1-[(3-chloro-4-fluorophenyl)methyl]-5,6-dimethyl-N-piperidin-4-ylbenzimidazol-2-amine]", "EC50": "30 to 100"}
{"compound": "Cc1ccc2nc([C@@H](N)C(C)C)n(Cc3cccc(Cl)c3)c2c1", "note": "[Example 270, (S)-1-(1-(3-chlorobenzyl)-6-methyl-1H-benzo[d]imidazol-2-yl)-2-methylpropan-1-amine]", "EC50": "30 to 100"}
{"compound": "Cc1ccc2nc([C@H](N)CO)n(Cc3cccc(Cl)c3)c2c1", "note": "[Example 271, (2S)-2-amino-2-[1-[(3-chlorophenyl)methyl]-6-methylbenzimidazol-2-yl]ethanol]", "EC50": "30 to 100"}
{"compound": "Cc1ccc2nc([C@@H](N)Cc3ccc(O)cc3)n(Cc3ccc(F)cc3)c2c1", "note": "[Example 272, 4-[(2S)-2-amino-2-[1-[(4-fluorophenyl)methyl]-6-methylbenzimidazol-2-yl]ethyl]phenol]", "EC50": "30 to 100"}
{"compound": "NCc1ccc2c(c1)nc(N1CCNCC1)n2Cc1ccc(F)c(Cl)c1", "note": "[Example 281, [1-[(3-chloro-4-fluorophenyl)methyl]-2-piperazin-1-ylbenzimidazol-5-yl]methanamine]", "EC50": "5 to 30"}
{"compound": "Cc1cc2nc(N3CCC(N)C3)n(Cc3ccc(F)c(Cl)c3)c2cc1C", "note": "(stereo not drawn) [Example 289, 1-(1-(3-chloro-4-fluorobenzyl)-5,6-dimethyl-1H-benzo[d]imidazol-2-yl)pyrrolidin-3-amine]", "EC50": "1 to 5"}
{"compound": "Cc1cc(Cn2c(NCCN)nc3c(O)cccc32)ccc1F", "note": "[Example 295, 2-((2-aminoethyl)amino)-1-(4-fluoro-3-methylbenzyl)-1H-benzo[d]imidazol-4-ol]", "EC50": "5 to 30"}
{"molecular_target": "T1, Son of Sevenless (SOS) (Homo sapiens, UniProt Q07889)", "T1 sequence (Q07889 564-1049 limits assumed)": "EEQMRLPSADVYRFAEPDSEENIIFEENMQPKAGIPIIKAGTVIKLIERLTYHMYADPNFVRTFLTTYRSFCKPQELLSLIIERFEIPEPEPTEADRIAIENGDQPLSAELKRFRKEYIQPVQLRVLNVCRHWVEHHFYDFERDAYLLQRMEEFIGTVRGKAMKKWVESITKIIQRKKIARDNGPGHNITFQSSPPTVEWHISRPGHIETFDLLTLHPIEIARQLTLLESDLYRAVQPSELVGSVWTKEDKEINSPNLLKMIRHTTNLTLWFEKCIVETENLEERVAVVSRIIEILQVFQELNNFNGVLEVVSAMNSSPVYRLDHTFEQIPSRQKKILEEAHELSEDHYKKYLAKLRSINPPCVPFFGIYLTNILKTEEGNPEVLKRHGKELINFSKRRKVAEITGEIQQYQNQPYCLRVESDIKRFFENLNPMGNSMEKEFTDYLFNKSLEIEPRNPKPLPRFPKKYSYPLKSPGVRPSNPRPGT", "assay": "Binding to SOS, fluorescence polarization anisotropy (FPA) probe displacement", "details": "displacement of FITC-conjugated probe (Example 285), affinity calculated from IC50", "method": "Compounds of the present invention were tested for their ability to bind to the Ras guanine exchange factor (GEF) Son of Sevenless (SOS). Binding to SOS was measured using a Fluorescence polarization anisotropy (FPA) assay that assesses the ability of a test compound to displace a fluorescent FITC-conjugated compound (Example 285). Briefly, the labeled probe compound is incubated with SOS in buffer. Changes in anisotropy indicative of displacement of the labeled probe for a test compound are assessed over a dose range of test compound. Data was analyzed by plotting fluorescence anisotropy values as a function of compound concentration. IC50 values were determined using a four-parameter dose-response (variable slope) and binding affinities were calculated from this IC50 value. This assay is performed in a method analogous to the assay disclosed in: Burns, M. C.; Sun, Q.; Daniels, R. N.; Camper, D. V.; Kennedy, J. P.; Phan, J.; Olejniczak, E. O.; Lee, T.; Waterson, A. G.; Rossanese, O. W.; Fesik, S. W. “Approach for targeting Ras with small molecules that activate SOS-mediated nucleotide exchange” Proc. Natl. Acad. Sci. 2014; 11(9): 3401-3406. PMCID: PMC3948241.", "units": {"Ki": "µM"}}
{"compound": "N[C@@H](Cc1ccccc1)c1cc(Cl)cc2c1nc(N1CCNCC1)n2Cc1ccc(F)c(Cl)c1", "note": "[Example 166, (S)-1-(6-chloro-1-(3-chloro-4-fluorobenzyl)-2-(piperazin-1-yl)-1H-benzo[d]imidazol-4-yl)-2-phenylethan-1-amine trifluoroacetate]", "Ki": "0.5 to 1"}
{"compound": "COC(=O)c1cnn(CC(C)C)c1-c1cc(C)cc2c1nc(N1CCNCC1)n2Cc1ccc(F)c(Cl)c1", "note": "[Example 179, methyl 5-(1-(3-chloro-4-fluorobenzyl)-6-methyl-2-(piperazin-1-yl)-1H-benzo[d]imidazol-4-yl)-1-isobutyl-1H-pyrazole-4-carboxylate]", "Ki": "0.5 to 1"}
